EC50 data for 24 compounds are collected here from patent US10864211B2, “Hydroxy isoxazole compounds useful as GPR120 agonists” (Merck Sharp & Dohme Corp., priority 2016, dated 2020).

Counter-ions that a name gives are not always drawn.

This test addresses T1, human GPR120 (Homo sapiens, UniProt Q5NUL3).
T1 construct: expressed in transfected cells; host or cells: CHO-K1
T1 sequence (Q5NUL3 1-361): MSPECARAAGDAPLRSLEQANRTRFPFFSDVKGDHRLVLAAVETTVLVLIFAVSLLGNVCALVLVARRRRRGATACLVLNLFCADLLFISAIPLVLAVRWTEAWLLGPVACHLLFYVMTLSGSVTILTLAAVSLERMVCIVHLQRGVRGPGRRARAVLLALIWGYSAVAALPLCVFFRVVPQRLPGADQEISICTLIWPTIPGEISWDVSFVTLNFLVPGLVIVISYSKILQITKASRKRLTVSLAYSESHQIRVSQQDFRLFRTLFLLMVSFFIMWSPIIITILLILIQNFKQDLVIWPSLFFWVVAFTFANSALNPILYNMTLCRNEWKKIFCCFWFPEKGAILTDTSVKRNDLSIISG
As to the kind of experiment: Human GPR120 IP1 assay (inositol phosphate turnover). As to conditions: IP1 accumulation in CHO-K1 cells stably expressing the short form of human GPR120. The class given is cell-based. From the text:
The binding of small molecule agonists to the G-protein-coupled receptor GPR120 activates phospholipase C, and leads to the generation of inositol 1,4,5-trisphosphate (InsP3 or IP3). IP3 is subsequently de-phosphorylated to IP1, which accumulates in cells and is stable in the presence of lithium chloride.
In the present method, agonist-induced activation of the human and rat GPR120 receptor was monitored by measuring the accumulation of IP1 in CHO-K1 cells that were stably expressing the short form of human GPR120 (Accession #NM_001195755) or HEK293 cells stably expressing rat GPR120 (Accession #NM_001047088). Following agonist addition, GPR120 activation and subsequent accumulation of IP1 was measured using a homogeneous Time Resolved Fluorescence-based ELISA commercially available from CisBio (IP-one ELISA Kit). The IP-One ELISA was a competitive immunoassay which uses IP1 labeled with […] and a terbium cryptate-labeled anti-IP1 monoclonal antibody. […] The signal loss was then back calculated to IP1 concentration using an IP1 standard curve. Determination of IP1 concentration was a direct measure of GPR120 activation and was used to determine compound potency (EC50).
Human GPR120 stable cell-lines were generated in CHO cells. The expression plasmids were transfected using lipofectamine (Life Technologies) following manufacturer's instructions. Stable cell-lines were generated following drug selection and single cell cloning. Rat GPR120 stable cell-lines were generated in HEK cells using the Jump-In™ cell engineering platform (Life Technologies) following manufacturer's instructions. Stable cell-lines were generated following drug selection and single cell cloning.
The assay was performed in 384-well format. CHO cells stably expressing human GPR120 were plated at 20,000 cells per well in growth medium (DMEM/F12, 10% fetal calf serum). HEK293 cells stably expressing rat GPR120 were plated at […] per well in growth medium (DMEM, 10% fetal calf serum). Cell plates were then incubated 16 hours at 37 degrees in a 5% CO2 incubator. Measurement of Inositol Phosphate Turnover (IP1) was performed using the CisBio IP-One kit (Part number 62IPAPEB). After the 16 hour incubation, the growth media was removed by centrifugation using the BlueWasher (AusWasher GUI Ver. v1.0.1.8) Protocol #21-“Light Dry” and 10 μl of stimulation buffer (prepared as described in the kit) was added to each well. In a separate plate, compounds were diluted in DMSO (200-fold over the final concentration in the assay well) and 50 nl was acoustically transferred to the appropriate well in the assay cell plate. The plates were then incubated for 60 minutes at 37 degrees in a 5% CO2 incubator. 10 μl of detection buffer (also prepared as described in the IP-One kit) was added to each well and the plates were incubated at room temperature for 60 minutes in the dark. The plates were then read in a Perkin ElmerEnVision or equivalent reader able to measure FRET. Fluorescent ratio of emission at 665 and 620 nm was then converted to the IP1 concentration by back calculating from an IP1 standard curve prepared at the time of the assay. The data was normalized to % activity using a reference compound, and the EC50 values were determined using a standard 4-parameter fit.
As to `Oc1cc(-c2ccc(OC3CC(OCc4ccc(F)cc4F)C3)nc2)on1` (mixture of isomers) [Example 72, 5-[6-({cis-3-[(2,4-difluorobenzyl)oxy]cyclobutyl}oxy)pyridin-3-yl]isoxazol-3-ol (mixture of isomers predominantly cis)], the half-maximal effective concentration (EC50) – broadly, the concentration needed to bring the measured effect to its halfway point – came to 29 nM.

In turn, `N#Cc1cccc(COC2CC(Oc3ccc(-c4cc(O)no4)cn3)C2)c1` (mixture of isomers) [Example 73, 3-{[(cis-3-{[5-(3-hydroxyisoxazol-5-yl)pyridin-2-yl]oxy}cyclobutyl)oxy]methyl}benzonitrile (mixture of isomers predominantly cis)] yielded an EC50 of 166 nM.

The compound `Oc1cc(-c2ccc(OC3CC(OCc4cc(F)ccc4C(F)(F)F)C3)nc2)on1` (mixture of isomers) [Example 76, ammonium 5-{6-[(cis-3-{[5-fluoro-2-(trifluoromethyl)benzyl]oxy}cyclobutyl)oxy]pyridin-3-yl)isoxazol-3-olate (mixture of isomers predominantly cis)] came in with an EC50 of 138 nM.

For `N#Cc1cccc(COC2CC(Oc3ccc(-c4cc(O)no4)cn3)C2)c1F` (mixture of isomers) [Example 77, ammonium 5-[6-({cis-3-[(3-cyano-2-fluorobenzyl)oxy]cyclobutyl}oxy)pyridin-3-yl]isoxazol-3-olate (mixture of isomers predominantly cis)], the EC50 was determined as 388 nM.

For the compound `CC(OC1CC(Oc2ccc(-c3cc(O)no3)cn2)C1)c1ccccc1` (mixture of isomers) [Example 78, 5-(6-{[3-(1-phenylethoxy)cyclobuty]oxy}pyridin-3-yl)isoxazol-3-ol (mixture of isomers)], the EC50 was 305 nM.

As to `Oc1cc(-c2cnc(OC3CC(OCc4cc(C(F)(F)F)ccc4F)C3)cn2)on1` (mixture of isomers) [Example 79, 5-{5-[(cis-3-{[2-fluoro-5-(trifluoromethyl)benzyl]oxy}cyclobutyl)oxy]pyrazin-2-yl}isoxazol-3-ol (mixture of isomers predominantly cis)], the half-maximal effective concentration (EC50) came out at 13 nM.

Compound `Oc1cc(-c2cnc(OC3CC(OCC4CCCCC4)C3)cn2)on1` (mixture of isomers) [Example 80, 5-(5-{[cis-3-(cyclohexylmethoxy)cyclobutyl]oxy}pyrazin-2-yl)isoxazol-3-ol (mixture of isomers predominantly cis)] displayed a half-maximal effective concentration (EC50) of 23 nM.

As to `Oc1cc(-c2cnc(OC3CC(OCC4CCCC4)C3)cn2)on1` (mixture of isomers) [Example 81, sodium 5-(5-{[cis-3-(cyclopentylmethoxy)cyclobutyl]oxy}pyrazin-2-yl)isoxazol-3-olate (mixture of isomers predominantly cis)], the 50% effective concentration (EC50) stood at 31 nM.

Take `Oc1cc(-c2cnc(O[C@H]3C[C@@](F)(c4cc(OC(F)(F)F)ccc4F)C3)cn2)on1` (single isomer, unassigned) [Example 89, 5-[5-({trans-3-fluoro-3-[2-fluoro-5-(trifluoromethoxy)phenyl]-cyclobutyl}oxy)pyrazin-2-yl]isoxazol-3-ol]: the EC50 came to 51 nM.

`Oc1cc(-c2ccc(OC3CCC(c4cccc(OC(F)(F)F)c4)C3)nc2)on1` (single isomer, unassigned) [Example 116, 5-(3-hydroxyisoxazol-5-yl)-2-({3-[3-(trifluoromethoxy)-phenyl]cyclopentyl}oxy)pyridinium trifluoroacetate] displayed a half-maximal effective concentration (EC50) of 18 nM.

In turn, `Oc1cc(-c2ccc(OC3CCC(c4cccc(OC(F)(F)F)c4)C3)nc2)on1` (single isomer, unassigned) [Example 117, 5-(3-hydroxyisoxazol-5-yl)-2-({3-[3-(trifluoromethoxy)phenyl]cyclopentyl}oxy)pyridinium trifluoroacetate] gave an EC50 of 59 nM.

Compound `Oc1cc(-c2ccc(OC3CCC(c4cccc(OC(F)(F)F)c4)C3)nc2)on1` (single isomer, unassigned) [Example 118] gave an EC50 of 34 nM.

For the compound `Oc1cc(-c2ccc(OC3CCC(c4cccc(OC(F)(F)F)c4)C3)nc2)on1` (single isomer, unassigned) [Example 119, 5-(6-((3-(3-(trifluoromethoxy)phenyl)cyclopentyl)oxy)pyridin-3-yl)isoxazol-3-ol], the concentration giving a half-maximal response (EC50) came out at 12 nM.

Regarding `Oc1cc(-c2cnc(O[C@H]3C[C@@H](c4ccc(C(F)F)c(F)c4)C3)cn2)on1` [Example 1, 5-[5-({cis-3-[4-(difluoromethyl)-3-fluorophenyl]cyclobutyl}oxy)pyrazin-2-yl]isoxazol-3-ol], a half-maximal effect (EC50) was put at 8.7 nM. This EC50 and that of the compound before are within 1.5-fold of each other.

In turn, `Oc1cc(-c2cnc(O[C@H]3C[C@H](c4ccc(C(F)F)c(F)c4)C3)cn2)on1` [Example 2, 5-[5-({trans-3-[4-(difluoromethyl)-3-fluorophenyl]cyclobutyl}oxy)pyrazin-2-yl]isoxazol-3-ol] displayed a concentration for a half-maximal effect (EC50) of 178 nM.

Consider `Oc1cc(-c2cnc(O[C@H]3C[C@@H](c4cc(F)cc(OC(F)(F)F)c4)C3)cn2)on1` [Example 3, ammonium 5-[5-({cis-3-[3-fluoro-5-(trifluoromethoxy)-phenyl]cyclobutyl}oxy)pyrazin-2-1]isoxazol-3-olate], for which a half-maximal response (EC50) required 102 nM. Against the preceding compound, the EC50 is about 1.7-fold lower.

In the case of `Oc1cc(-c2cnc(O[C@H]3C[C@@H](c4ccc(OC5CC5)cc4)C3)cn2)on1` [Example 4, sodium 5-[5-({cis-3-[4-(cyclopropyloxy)phenyl]cyclobutyl}-oxy)pyrazin-2-yl]isoxazol-3-olate], the response was half-maximal at 83 nM (EC50).

`Oc1cc(-c2cnc(O[C@H]3C[C@@H](c4nc(C(F)(F)F)cs4)C3)cn2)on1` [Example 5, 5-[5-({cis-3-[4-(trifluoromethyl)-1,3-thiazol-2-yl]cyclobutyl}oxy)pyrazin-2-yl]isoxazol-3-ol]: the EC50 is 82 nM. This EC50 and that of the compound before are within 1.5-fold of each other.

`Oc1cc(-c2cnc(O[C@H]3C[C@@H](c4ncc(C(F)(F)F)s4)C3)cn2)on1` [Example 6, 5-[5-({cis-3-[5-(trifluoromethyl)-1,3-thiazol-2-yl]cyclobutyl}oxy)pyrazin-2-yl]isoxazol-3-ol] displayed an EC50 of 129 nM.

The compound `Oc1cc(-c2cnc(O[C@H]3C[C@@H](c4ccc(Br)cc4)C3)cn2)on1` [Example 7, ammonium 5-(5-{[cis-3-(4-bromophenyl)cyclobutyl]oxy}pyrazin-2-yl)isoxazol-3-olate] had an EC50 of 11 nM.

`Oc1cc(-c2ccc(O[C@H]3C[C@H](c4ncc(C(F)(F)F)cc4F)C3)nc2)on1` [Example 8, sodium 5-[6-({trans-3-[3-fluoro-5-(trifluoromethyl)pyridin-2-yl]-cyclobutyl}oxy)pyridin-3-yl]isoxazol-3-olate] gave a half-maximal effective concentration (EC50) of 303 nM.

Consider `Oc1cc(-c2ccc(O[C@H]3C[C@@H](c4ncc(C(F)(F)F)cc4F)C3)nc2)on1` [Example 9, sodium 5-[6-({cis-3-[3-fluoro-5-(trifluoromethyl)pyridin-2-yl]-cyclobutyl}oxy)pyridin-3-yl]isoxazol-3-olate], for which it took 23 nM to reach a half-maximal effect (EC50).

`Oc1cc(-c2cnc(O[C@H]3C[C@@H](c4ccc(F)cc4)C3)cn2)on1` [Example 10, sodium 5-(5-{[cis-3-(4-fluorophenyl)cyclobutyl]oxy}pyrazin-2-yl)isoxazol-3-olate] gave an EC50 of 34 nM. This EC50 and that of the compound before are within 1.5-fold of each other.

In turn, `Oc1cc(-c2ccc(O[C@H]3C[C@@H](c4cc(OC(F)(F)F)ccc4F)C3)nc2)on1` [Example 11, ammonium 5-[6-({cis-3-[2-fluoro-5-(trifluoromethoxy)phenyl]cyclo-butyl}oxy)pyridin-3-yl]isoxazol-3-olate] registered an EC50 of 112 nM.
